# System: A2780cis spheroids
# Assay: 3D spheroid assay, A2780cis
# Assay type: cell-based, human
# Settings: FEN1i/cisplatin combination vs cisplatin or FEN1i monotherapy
# Experimental: with ice cold PBS and fixed in 70% ethanol for 1h at -20°C. After removal of the fixative solution by centrifugation, cells were stained with 2 µg/ml of phospho-Histone (γH2AX) Ser139 (16202A, Millipore, UK) to detect DSBs.
# Cell cycle progression: Cells were treated with 20 µg/ml RNase A (12091021, Invitrogen) and then 10 µg/ml Propidium Iodide (P4170, Sigma Aldrich) was added to determine the cell cycle distribution. The samples were analysed on a Beckman-Coulter FC500 flow cytometer using a 488nm laser for excitation and emission data for PI collected using a 620nm bandpass filter (FL3) and a 525nm bandpass filter (FL1) for FITC-anti-phospho-Histone H2A.X.
# Apoptosis detection: Annexin V detection kit (556547, BD Biosciences) was used to quantify apoptotic cells. Briefly, cells were trypsinized, washed with PBS and the cellular pellet was re-suspended in Anexin Binding Buffer (1×). […] All the samples were analysed on a Beckman-Coulter FC500 flow cytometer. The percentage of apoptotic cells was determined (late apoptotic = FITC-Annexin V positive, PI positive early apoptotic = FITC-Annexin V positive, PI negative; live cells = FITC-Annexin V negative, PI negative) and compared for untreated and treated samples. […]
# To quantify cell viability, LIVE/DEAD Viability/Cytotoxicity Kit (L3224, Thermo Fisher Scientific) was used. […] At least 10 spheroids were measured. […]
structure (smiles),measurement,value
"Cc1csc2c1c(=O)n(O)c(=O)n2-c1ccccc1 [PTPD, 3-hydroxy-5-methyl-1-phenylthieno [2,3 d]pyrimidine-2,4(1H,3H)-dione]",cell death in 3D-spheroids,increased cell death

# Reference: article PMC8070745, “FEN1 Blockade for Platinum Chemo-Sensitization and Synthetic Lethality in Epithelial Ovarian Cancers” (Cancers, 2021)
